The text below walks through data of paper PMC11484510, “Antibacterial activity of structurally diverse natural prenylated isobavachalcone derivatives” (RSC Advances, 2024).

Values after ≈ are worked out from the molar mass of the structure shown. “Also recorded” adds a separate entry of the source. Read-outs that look alike come from different tables or passages of the source.

The subject of experiment [1] is S. aureus. Put plainly: Cell integrity analysis by PI staining. The format is cell-based. The settings on record: 1× MIC and 2× MIC, 30 minutes, compared to the untreated cells. How it is done: Propidium iodide (PI) indicates cell integrity, emitting a red fluorescence signal. PI's polar and hydrophilic nature impedes its entrance within active bacterial cells, but within perforated dead cells, it can easily bind to nucleic acid (DNA/RNA).[32,60]S. aureus bacterial cells were incubated overnight at 37 °C and diluted further 1 : 100 in Mueller Hinton Broth (MHB). The diluted culture was grown until its OD600 reached 0.5. […] Vancomycin was used as a drug control at 1× MIC, while untreated bacterial cells were used as growth control. The samples were centrifuged at 5000 rpm speed at 4 °C temperature for 10 minutes, and the pellet was washed two times using phosphate-buffered saline pH-7.4 (PBS). To stain the sample (dead cells), 3 μL PI of 20.0 mM concentration was added to the 1 mL solution (pellet resuspended in PBS) and incubated for 15 minutes. To remove the dye, the samples were centrifuged again and washed with PBS once. The final pellet was resuspended in 1 mL of PBS, and 30 μL of each undiluted sample was used to obtain fluorescence imaging. The cells were observed under fluorescence microscopy.[61]

Experiment [2] relates to S. aureus ATCC 29213. Put plainly: Time-kill assay. The format is cell-based.
Experiment [3] concerns MRSA ATCC 15187. Put plainly: MIC, broth microdilution (CLSI), Alamar blue. The format is cell-based, Methicillin-resistant S. aureus. The settings on record: MRSA ATCC 15187, 24 hours at 37 °C, read-out: Minimum inhibitory concentration (MIC) MRSA. An excerpt:
(§1) The bacterial strains S. aureus ATCC 29213, MRSA ATCC 15187, E. coli ATCC 25922, and P. aeruginosa ATCC 27853 were obtained from ATCC (American Type Culture Collection). Cation-adjusted Mueller–Hinton broth (MHB; Becton–Dickinson, Cockeysville, MD) was used to determine the minimum inhibitory concentration (MIC). Mueller–Hinton agar (MHA; Becton–Dickinson) was used for minimum bactericidal concentration (MBC) studies. Alamar blue (Himedia) was used to detect the MIC value.
The antibacterial activity of the compounds against S. aureus ATCC 29213, MRSA ATCC 15187, E. coli ATCC 25922, and P. aeruginosa ATCC 27853 was determined through a broth microdilution method according to the guidelines of the Clinical and Laboratory Standards Institute (CLSI).[50] […] Growth control and media control were employed along with 2% DMSO as vehicle control.
In a 96-well flat bottom plate, the test compounds were two-fold serially diluted in Mueller Hinton Broth (MHB). The final concentrations of the compounds ranged from 100 to 0.08 μM. 100 μL of standardized bacterial inoculum with turbidity equivalent to 0.5 McFarland standard (1.5 × 10^8 CFU mL^−1) was diluted 1 : 100 (1.5 × 10^6 CFU mL^−1) in Mueller Hinton Broth and inoculated in the plates.[51] The plates were incubated for 24 hours at 37 °C. After incubation, 10 μL of freshly prepared Alamar blue (Himedia) was added to each well of the plate, and plates were further incubated at 37 °C for 30 minutes. After incubation, the fluorescence was measured at excitation/emission of 540–570/580–610 nm. The percentage inhibition and viability were calculated for the controls, and the Gompertz curve was utilized to estimate the minimum inhibitory concentration.
For orientation: Broth dilution looks for growth in wells or tubes with falling amounts of substance.

Experiment [4] concerns MRSA ATCC 15187. Put plainly: MBC, plating on MHA. It counts as cell-based, Methicillin-resistant S. aureus. The settings on record: Staphylococcus aureus; more than 99.9% of the cells killed; read-out: Minimum bactericidal concentration (MBC) MRSA.
Source text: as §1
(§2) MBC is defined as the lowest concentration of the compound at which more than 99.9% of the cells were killed compared with the growth control. The minimum compound concentration at which no visible bacterial growth was observed was taken as the Minimum Bactericidal Concentration (MBC).[50]

Experiment [5] deals with S. aureus. Put plainly: Combinational study (checkerboard microdilution) with standard drugs. It counts as cell-based. The note with it: S. aureus. How it is done:
The Fractional Inhibitory Concentration Index (FICI) was calculated for each test compound and reference drug to find the combinational effect.
In a 96-well flat bottom plate, the reference drug with 4× MIC was serially diluted horizontally. The test compounds with 4× MIC were serially diluted two-fold outside the plate in 1.5 mL Eppendorf's using Mueller Hinton Broth (MHB). These two serially diluted compounds were combined to create drug-compound combinations in the plate. The reference drug (horizontally) and tested compounds (vertically) alone were serially diluted for MIC determination. 100 μL of the standardized bacterial inoculum with a turbidity equivalent to a 0.5 McFarland standard were diluted 1 : 100 in Mueller Hinton Broth and inoculated in the plates. The plates were incubated for 24 hours at 37 °C. After incubation, 10 μL of freshly prepared Alamar blue (Himedia) was added to each well of the plate, and the plates were further incubated at 37 °C for 30 minutes. After incubation, the plates were visually observed. […] The FICI was calculated using the formula FICI = FIC of compound + FIC of drug. The calculation followed is FICI (CA/(MICA)) + (CB/(MICB)), where CA is the MIC of the compound in combination, CB is the MIC of the drug in combination, and MICA and MICB are the MIC values of individual compounds and drugs, respectively. The range selection followed the interpretation criteria. The FICI range of 0.5 to 4 indicates indifference, ≤ or =0.5 indicates synergy and >4 indicates antagonism.[57]

The test system of experiment [6] is S. aureus ATCC 29213. In words: MBC, plating on MHA. The format is cell-based. The note with it: Staphylococcus aureus, ATCC29213; more than 99.9% of the cells killed; read-out: Minimum bactericidal concentration (MBC) S. aureus.
Source text: as §1, §2

A further experiment relates to E. coli ATCC 25922. Put plainly: MBC, plating on MHA. The format is cell-based. The note with it: Escherichia coli, ATCC25922; more than 99.9% of the cells killed; read-out: Minimum bactericidal concentration (MBC) E. coli.
Source text: as §1, §2

In another experiment the test system is P. aeruginosa ATCC 27853. In words: MBC, plating on MHA. It counts as cell-based. The note with it: Pseudomonas aeruginosa, ATCC27853; more than 99.9% of the cells killed; read-out: Minimum bactericidal concentration (MBC) P. aeruginosa.
Source text: as §1, §2

Turning to `CC(C)=CCc1c(O)ccc2c1O/C(=C\c1ccc(O)cc1)C2=O` [IBC-3, (Z)-6-hydroxy-2-(4-hydroxybenzylidene)-7-(3-methylbut-2-en-1-yl)benzofuran-3(2H)-one], the “PI red fluorescence (cell integrity)” value with S. aureus [1] is “notably increased intensity of red fluorescence”. For the same compound, in the experiment on S. aureus ATCC 29213 [2] (2× MIC and 4× MIC, with increasing time (up to 24 h)), the “CFU count of S. aureus ATCC 29213 in time-kill study” value is “below the detection limit”. The Time-kill profile result in the experiment with S. aureus ATCC 29213 [2] (MIC, 2× MIC, 4× MIC, 1 h to 24 h, 37 °C) is “concentration-dependent killing effect; also recorded: concentration and time-dependent killing effects”. The MIC with MRSA ATCC 15187 [3] is 6 µM (≈ 1.93 µg/mL); in the experiment on MRSA ATCC 15187 [3] (Staphylococcus aureus) it was 6 µM (≈ 1.93 µg/mL); in the experiment on S. aureus [5] (Staphylococcus aureus, checkerboard, substance alone, read-out: MIC alone), 10 µM. The MBC in the experiment on MRSA ATCC 15187 [4] stood at 25 µM (≈ 8.06 µg/mL); in the experiment with S. aureus ATCC 29213 [6], 25 µM (≈ 8.06 µg/mL); in the experiment with E. coli ATCC 25922 it was 25 µM (≈ 8.06 µg/mL); in the experiment on P. aeruginosa ATCC 27853 it was 100 µM (≈ 32.2 µg/mL). For the same compound, the “MIC combination (compound)” value in the experiment on S. aureus [5] (MIC of the compound in combination with ciprofloxacin) and in the experiment on S. aureus [5] (MIC of the compound in combination with vancomycin) was 5 µM each time. Also, the Outcome of combination entry with S. aureus [5] (compound with ciprofloxacin) is given as “Indifference (The FICI range of 0.5 to 4 indicates indifference)”. In addition, the “∑ FICI” value is reported as 1 with S. aureus [5] (compound with ciprofloxacin) and 0.5 in the experiment on S. aureus [5] (compound with vancomycin).
